Reference: patent publication US4866076A, “Biologically active compounds” (Smith Kline & French Laboratories Limited, priority 1987, dated 1989)
Structures can show the parent of a compound that is named as a salt.

Target: T1, TXA2 receptors (Homo sapiens, UniProt P21731)
T1 construct: from tissue; host or cells: human platelets
T1 sequence (P21731 1-343): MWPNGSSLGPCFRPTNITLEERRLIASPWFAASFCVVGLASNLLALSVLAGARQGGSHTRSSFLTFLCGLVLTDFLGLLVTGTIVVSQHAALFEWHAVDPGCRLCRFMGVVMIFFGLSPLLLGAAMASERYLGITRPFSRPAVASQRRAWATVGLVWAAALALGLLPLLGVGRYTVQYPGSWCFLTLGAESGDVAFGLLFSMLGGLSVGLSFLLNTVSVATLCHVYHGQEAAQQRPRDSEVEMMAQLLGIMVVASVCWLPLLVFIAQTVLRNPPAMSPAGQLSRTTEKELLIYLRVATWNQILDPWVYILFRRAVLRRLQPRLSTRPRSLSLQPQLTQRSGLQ
Assay: human platelet binding assay ([^125 I]PTA-OH receptor ligand)
Conditions: 50% inhibition of specific [^125 I]PTA-OH binding; human platelets
Method: As indicated above, compounds of the formula (I) have biological activity that is indicative of an ability to antagonise TXA2 receptors. […] The platelet binding assay used was essentially the method described by Mais et al, J. Pharm. Exp. Ther., 1985, 235(3), 729-734 where [^125 I]PTA-OH was used as the receptor ligand. The IC50 values represent the concentration which produces a 50% inhibition of specific [^125 I]PTA-OH binding. The compounds of Examples 1 to 6 were tested in the human platelet binding assays as described above and the results obtained are shown in the Table below: […]

SMILES | IC50 [nM]
O=C(O)c1ccccc1CN1CCc2ccc(S(=O)(=O)Nc3cccc(Cl)c3)cc2C1 [Example 1, 2-[[7-(3-chlorophenylsulphamoyl)-1,2,3,4-tetrahydroisoquinolin-2-yl]methyl]benzoic acid] | 2600
O=C(O)c1cccc(CN2CCc3ccc(S(=O)(=O)Nc4cccc(Cl)c4)cc3C2)c1 [Example 2, 3-[[7-(3-Chlorophenylsulphamoyl)-1,2,3,4-tetrahydroisoquinolin-2-yl]methyl]benzoic acid] | 500
O=C(O)c1ccc(CN2CCc3ccc(S(=O)(=O)Nc4cccc(Cl)c4)cc3C2)cc1 [Example 3, 4-[[7-(3-Chlorophenylsulphamoyl)-1,2,3,4-tetrahydroisoquinolin-2-yl]methyl]benzoic acid] | 4000
COC(=O)c1ccc(CN2CCc3ccc(S(=O)(=O)Nc4cccc(Cl)c4)cc3C2)o1 [Example 4, methyl-5-[[7-(3-chlorophenylsulphamoyl)-1,2,3,4-tetrahydroisoquinolin-2-yl]methyl]-2-furoate] | 5000
O=C(O)c1ccc(CN2CCc3ccc(S(=O)(=O)Nc4cccc(Cl)c4)cc3C2)o1 [Example 5, 5-[[7-(3-chlorophenylsulphamoyl)-1,2,3,4-tetrahydroisoquinolin-2-yl]methyl]-2-furoic acid] | 760
O=C(O)c1ccnc(CN2CCc3ccc(S(=O)(=O)Nc4cccc(Cl)c4)cc3C2)c1 [Example 6, 2-[[7-(3-chlorophenylsulphamoyl)-1,2,3,4-tetrahydroisoquinolin-2-yl]methyl]isonicotinic acid hydrochloride] | 2900
